Data from ChEMBL document CHEMBL3885881, “DrugMatrix”.

Species: Rattus norvegicus
Assay: DrugMatrix - Regimen: Daily Repeat
Assay type: toxicity, organism-based, Sprague-Dawley
Design: regimen Daily Repeat, gender Male, age 6-8 weeks
Conditions: in vivo, po, route oral GAVAGE, vehicle 100 % WATER; for ABSOLUTE BASOPHIL / ABSOLUTE EOSINOPHIL / ABSOLUTE LYMPHOCYTE / ABSOLUTE MONOCYTE / ABSOLUTE SEGMENTED NEUTROPHIL / BASOPHIL / EOSINOPHIL / ERYTHROCYTE COUNT / HEMATOCRIT / HEMOGLOBIN / LEUKOCYTE COUNT / LYMPHOCYTE / MEAN CORPUSCULAR HEMOGLOBIN / MEAN CORPUSCULAR HEMOGLOBIN CONCENTRATION / MEAN CORPUSCULAR VOLUME / MONOCYTE / NEUTROPHIL / NUCLEATED RED BLOOD CELLS / PLATELET COUNT: tissue Blood; for ALANINE AMINOTRANSFERASE / ALBUMIN / ALKALINE PHOSPHATASE / ASPARTATE AMINOTRANSFERASE / BLOOD UREA NITROGEN / CARBON DIOXIDE / CHLORIDE / CHOLESTEROL / CREATINE PHOSPHOKINASE / CREATININE / GLUCOSE / LACTATE DEHYDROGENASE / LIPASE / PHOSPHORUS / POTASSIUM / SODIUM / TOTAL BILIRUBIN / TOTAL PROTEIN / URIC ACID: tissue Plasma
[1] = 120 mg/kg, 120 h, dose level Low, time 5 day
[2] = 1695 mg/kg, 72 h, dose level High, time 3 day
[3] = 1695 mg/kg, 120 h, dose level High, time 5 day

Nc1ccc(S(=O)(=O)Nc2ccnn2-c2ccccc2)cc1 [SULFAPHENAZOLE]
ABSOLUTE BASOPHIL [1]: 0 CELLS/uL
ABSOLUTE EOSINOPHIL [1]: 0 CELLS/uL
ABSOLUTE LYMPHOCYTE [1]: 12168 CELLS/uL
ABSOLUTE MONOCYTE [1]: 171.33 CELLS/uL
ABSOLUTE SEGMENTED NEUTROPHIL [1]: 1260.67 CELLS/uL
BASOPHIL [1]: 0%
EOSINOPHIL [1]: 0%
ERYTHROCYTE COUNT [1]: 5.32 x10E6/uL
HEMATOCRIT [1]: 32.93%
HEMOGLOBIN [1]: 13.2 G/DL
LEUKOCYTE COUNT [1]: 13.6 x10E3/uL
LYMPHOCYTE [1]: 88.67%
MEAN CORPUSCULAR HEMOGLOBIN [1]: 24.8 pg
MEAN CORPUSCULAR HEMOGLOBIN CONCENTRATION [1]: 40.07 G/DL
MEAN CORPUSCULAR VOLUME [1]: 61.87 fL
MONOCYTE [1]: 1.33%
NEUTROPHIL [1]: 10%
NUCLEATED RED BLOOD CELLS [1]: 0 /100WBC
PLATELET COUNT [1]: 1135.33 x10E3/uL
ALANINE AMINOTRANSFERASE [1]: 44 u/L
ALBUMIN [1]: 4.37 G/DL
ALKALINE PHOSPHATASE [1]: 314.33 u/L
ASPARTATE AMINOTRANSFERASE [1]: 85.33 u/L
BLOOD UREA NITROGEN [1]: 17.67 mg/dL
CARBON DIOXIDE [1]: 25 mmol/L
CHLORIDE [1]: 101.67 MEQ/L
CHOLESTEROL [1]: 55.33 mg/dL
CREATINE PHOSPHOKINASE [1]: 560.67 u/L
CREATININE [1]: 0.19 mg/dL
GLUCOSE [1]: 147.33 mg/dL
LACTATE DEHYDROGENASE [1]: 243.67 u/L
LIPASE [1]: 10.67 u/L
PHOSPHORUS [1]: 11.43 mg/dL
POTASSIUM [1]: 6.3 MEQ/L
SODIUM [1]: 141.23 MEQ/L
TOTAL BILIRUBIN [1]: 0.17 mg/dL
TOTAL PROTEIN [1]: 5.93 G/DL
URIC ACID [1]: 1.83 mg/dL
ABSOLUTE BASOPHIL [2]: 0 CELLS/uL
ABSOLUTE EOSINOPHIL [2]: 148.67 CELLS/uL
ABSOLUTE LYMPHOCYTE [2]: 12946.33 CELLS/uL
ABSOLUTE MONOCYTE [2]: 179 CELLS/uL
ABSOLUTE SEGMENTED NEUTROPHIL [2]: 1226 CELLS/uL
BASOPHIL [2]: 0%
EOSINOPHIL [2]: 1%
ERYTHROCYTE COUNT [2]: 6.24 x10E6/uL
HEMATOCRIT [2]: 37.43%
HEMOGLOBIN [2]: 14.4 G/DL
LEUKOCYTE COUNT [2]: 14.5 x10E3/uL
LYMPHOCYTE [2]: 89.33%
MEAN CORPUSCULAR HEMOGLOBIN [2]: 23.1 pg
MEAN CORPUSCULAR HEMOGLOBIN CONCENTRATION [2]: 38.5 G/DL
MEAN CORPUSCULAR VOLUME [2]: 60.03 fL
MONOCYTE [2]: 1.33%
NEUTROPHIL [2]: 8.33%
NUCLEATED RED BLOOD CELLS [2]: 0.33 /100WBC
PLATELET COUNT [2]: 1221 x10E3/uL
ALANINE AMINOTRANSFERASE [2]: 93.67 u/L
ALBUMIN [2]: 4.27 G/DL
ALKALINE PHOSPHATASE [2]: 470.33 u/L
ASPARTATE AMINOTRANSFERASE [2]: 97.33 u/L
BLOOD UREA NITROGEN [2]: 20 mg/dL
CARBON DIOXIDE [2]: 28.67 mmol/L
CHLORIDE [2]: 98 MEQ/L
CHOLESTEROL [2]: 66 mg/dL
CREATINE PHOSPHOKINASE [2]: 349 u/L
CREATININE [2]: 0.24 mg/dL
GLUCOSE [2]: 138 mg/dL
LACTATE DEHYDROGENASE [2]: 231 u/L
LIPASE [2]: 12 u/L
PHOSPHORUS [2]: 11.17 mg/dL
POTASSIUM [2]: 6.38 MEQ/L
SODIUM [2]: 138.87 MEQ/L
TOTAL BILIRUBIN [2]: 0.17 mg/dL
TOTAL PROTEIN [2]: 5.9 G/DL
URIC ACID [2]: 1.43 mg/dL
ABSOLUTE BASOPHIL [3]: 0 CELLS/uL
ABSOLUTE EOSINOPHIL [3]: 0 CELLS/uL
ABSOLUTE LYMPHOCYTE [3]: 12966.33 CELLS/uL
ABSOLUTE MONOCYTE [3]: 311 CELLS/uL
ABSOLUTE SEGMENTED NEUTROPHIL [3]: 1656 CELLS/uL
BASOPHIL [3]: 0%
EOSINOPHIL [3]: 0%
ERYTHROCYTE COUNT [3]: 5.99 x10E6/uL
HEMATOCRIT [3]: 35.5%
HEMOGLOBIN [3]: 13.53 G/DL
LEUKOCYTE COUNT [3]: 14.93 x10E3/uL
LYMPHOCYTE [3]: 86.67%
MEAN CORPUSCULAR HEMOGLOBIN [3]: 22.57 pg
MEAN CORPUSCULAR HEMOGLOBIN CONCENTRATION [3]: 38.1 G/DL
MEAN CORPUSCULAR VOLUME [3]: 59.27 fL
MONOCYTE [3]: 2%
NEUTROPHIL [3]: 11.33%
NUCLEATED RED BLOOD CELLS [3]: 0 /100WBC
PLATELET COUNT [3]: 1318 x10E3/uL
ALANINE AMINOTRANSFERASE [3]: 117.33 u/L
ALBUMIN [3]: 4.47 G/DL
ALKALINE PHOSPHATASE [3]: 435.33 u/L
ASPARTATE AMINOTRANSFERASE [3]: 99.67 u/L
BLOOD UREA NITROGEN [3]: 16.33 mg/dL
CARBON DIOXIDE [3]: 25 mmol/L
CHLORIDE [3]: 99 MEQ/L
CHOLESTEROL [3]: 48 mg/dL
CREATINE PHOSPHOKINASE [3]: 444.33 u/L
CREATININE [3]: 0.22 mg/dL
GLUCOSE [3]: 150.33 mg/dL
LACTATE DEHYDROGENASE [3]: 121.33 u/L
LIPASE [3]: 12 u/L
PHOSPHORUS [3]: 11.27 mg/dL
POTASSIUM [3]: 5.55 MEQ/L
SODIUM [3]: 141.73 MEQ/L
TOTAL BILIRUBIN [3]: 0.23 mg/dL
TOTAL PROTEIN [3]: 5.87 G/DL
URIC ACID [3]: 1.37 mg/dL
